Laboratory results from patent US5082943A, “Novel imidazole derivatives” (Nippon Chemiphar Co., Ltd., priority 1988, dated 1992).

Experiments:
H^+ +K^+ ATPase [1] = target: T1, H^+ +K^+ ATPase (Sus scrofa, UniProt P19156); assay: H+ + K+ ATPase inhibitory effects (b) pig gastric mucosa; assay type: biochemical; settings: pig gastric mucosa vesicle; incubated 37° C., 30 min, pH 5.5; read-out: H+ + K+ ATPase inhibitory action (IC50)
T1 construct: Gastric acid secretory cells of a pig gastric mucosa were isolated; from tissue; host or cells: pig gastric mucosa, vesicles from gastric acid secretory cells (Ficoll density gradient)
Procedure: Gastric acid secretory cells of a pig gastric mucosa were isolated in the same manner as in the test for rabbit gastric mucosa. A vesicle containing H^+ +K^+ ATPase was prepared by centrifuging the cells in Ficoll of discontinuous density gradient. The enzyme and each test compound were incubated at 37° C. for 30 min. in a solution which contained 2 mM of a bisTRIS-acetate buffer (pH 5.5). To the resulting mixture were added a solution of 37.5 mM of bisTRIS-acetate buffer solution (pH 7.4), 2 mM of magnesium chloride, 2 mM of ATP and 5 mM of potassium chloride, and the mixture was then heated to 37° C. for 10 min. for performing a reaction. The reaction was terminated by addition of 5% trichloroacetic acid solution, and an inorganic phosphorus liberated was quantitatively measured by Fiske-Subbarow method. The ATPase activity was determined from the obtained inorganic phosphorus value.
(§1) The above procedure was repeated except for not using potassium chloride to determine an ATPase activity in the absence of potassium chloride.
The desired […] ATPase activity was calculated by subtracting the ATPase activity value determined in the absence of KCl from the ATPase activity value determined in the presence of KCl.

[2] = test system: secretion of gastric acid; assay: Inhibitory action against the secretion of gastric acid (Test II), Heidenhain pouch dogs, histamine stimulated; assay type: in vivo, male beagle dogs; settings: Canis lupus familiaris, Heidenhain pouch dog, histamine 160 ug/kg/hr, intravenous, read-out: Suppresive action on secretion of gastric acid (%)
Procedure: Heidenhain pouch dogs produced from male beagle dogs were fasted. To the dogs were then administered intarvenously histamine hydrochloride (gastric juice secretion inducing agent) continuously at a dose of 160 ug/kg/hr. The gastric juice was collected at an interval of 15 min. to measure the amount of gastric juice and acid output to determine an acid secretion amount (mEq/15 min).
The test compound was intravenously administered to the dogs at one hour after the initiation of histamine administration.
The inhibitory action was determined by comparing the acid secretion amount, with the corresponding amount of a control dog prepared in the same manner except that a vehicle alone was administered.

beagle dogs = assay: Acute toxicity test, beagle dogs; assay type: in vivo; settings: oral, 45 mg/kg/day for two weeks
Procedure: (§2) 2-[(2-Isobutylamino)benzylsulfinyl]imidazole (Example No. 10) was orally administered to rats and beagle dogs at a dose of 45 mg/kg/day for two weeks.

H^+ +K^+ ATPase [3] = target: T2, H^+ +K^+ ATPase (Oryctolagus cuniculus, UniProt P27112); assay: H+ + K+ ATPase inhibitory effects (a) rabbit gastric mucosa; assay type: biochemical; settings: rabbit gastric mucosa vesicle; 2×10^-4 M test compound, pH 6.0, 25 min preincubation; read-out: H+ + K+ ATPase inhibitory action (%)
T2 construct: gastric acid secretory cells of a rabbit gastric mucosa were isolated; from tissue; host or cells: rabbit gastric mucosa, vesicles from gastric acid secretory cells (Ficoll density gradient)
Procedure: Following the method of Forte et al (J. Applied Physiol., 32, 714-717 (1972)), gastric acid secretory cells of a rabbit gastric mucosa were isolated. A vesicle containing H^+ +K^+ ATPase was prepared by centrifuging the cells in Ficoll of discontinuous density gradient. After the enzyme was incubated at room temperature for 25 min. in 0.5 ml of a solution which contained 5 mM of an imidazole buffer (pH 6.0) and 2×10^-4 M of each test compound, the mixture was heated to 37° C. The mixture was then allowed to stand for further 5 min. To the mixture was added 0.5 ml of a solution which contained 4 mM of magnesium chloride, 80 mM of an imidazole buffer (pH 7.4), 20 mM of potassium chloride and 4 mM of ATP. The resulting mixture was reacted at 37° C. for 15 min. and 1 ml of a 24% trichloroacetic acid was then added to terminate the reaction. The inorganic phosphorus liberated was quantitatively determined by the method proposed by Taussky and Shorr (J. Biol. Chem., 202, […] (1953)). The ATPase activity was determined from the obtained inorganic phosphorus value.
as §1
The desired K^+ -dependent ATPase activity was calculated by subtracting the ATPase activity value determined in the absence of KCl from the ATPase activity value determined in the presence of KC1.

rats = assay: Acute toxicity test, rats; assay type: in vivo; settings: oral, 45 mg/kg/day for two weeks
Procedure: as §2

[4] = test system: secretion of gastric acid; assay: Inhibitory action against the secretion of gastric acid (Test I), pylorus ligated rats; assay type: in vivo, Male Donryu rats; settings: rat, pylorus ligation, intraduodenal, 4 hours, acid output vs control
Procedure: Male Donryu rats having a body weight of 200 to 250 g were fasted (while allowing free access to water) for 24 hrs. in accordance with the conventional method [Shay, H. et al, Gastroenterology, 5, 43-61 (1945)]. Under ether anesthesia the pylorus was ligated and each test compound was administered intraduodenally. Four hours later, each rat was killed and the stomach was removed to collect the gastric juice. The inhibitory action was determined by comparing the acid output which was determined by titration to pH 7.0 with 0.1-N NaOH by means of an automatic titrator, with the corresponding value of control rat prepared in the same manner except that a vehicle alone was administered.

T2 sequence (P27112 2-1035 limits assumed): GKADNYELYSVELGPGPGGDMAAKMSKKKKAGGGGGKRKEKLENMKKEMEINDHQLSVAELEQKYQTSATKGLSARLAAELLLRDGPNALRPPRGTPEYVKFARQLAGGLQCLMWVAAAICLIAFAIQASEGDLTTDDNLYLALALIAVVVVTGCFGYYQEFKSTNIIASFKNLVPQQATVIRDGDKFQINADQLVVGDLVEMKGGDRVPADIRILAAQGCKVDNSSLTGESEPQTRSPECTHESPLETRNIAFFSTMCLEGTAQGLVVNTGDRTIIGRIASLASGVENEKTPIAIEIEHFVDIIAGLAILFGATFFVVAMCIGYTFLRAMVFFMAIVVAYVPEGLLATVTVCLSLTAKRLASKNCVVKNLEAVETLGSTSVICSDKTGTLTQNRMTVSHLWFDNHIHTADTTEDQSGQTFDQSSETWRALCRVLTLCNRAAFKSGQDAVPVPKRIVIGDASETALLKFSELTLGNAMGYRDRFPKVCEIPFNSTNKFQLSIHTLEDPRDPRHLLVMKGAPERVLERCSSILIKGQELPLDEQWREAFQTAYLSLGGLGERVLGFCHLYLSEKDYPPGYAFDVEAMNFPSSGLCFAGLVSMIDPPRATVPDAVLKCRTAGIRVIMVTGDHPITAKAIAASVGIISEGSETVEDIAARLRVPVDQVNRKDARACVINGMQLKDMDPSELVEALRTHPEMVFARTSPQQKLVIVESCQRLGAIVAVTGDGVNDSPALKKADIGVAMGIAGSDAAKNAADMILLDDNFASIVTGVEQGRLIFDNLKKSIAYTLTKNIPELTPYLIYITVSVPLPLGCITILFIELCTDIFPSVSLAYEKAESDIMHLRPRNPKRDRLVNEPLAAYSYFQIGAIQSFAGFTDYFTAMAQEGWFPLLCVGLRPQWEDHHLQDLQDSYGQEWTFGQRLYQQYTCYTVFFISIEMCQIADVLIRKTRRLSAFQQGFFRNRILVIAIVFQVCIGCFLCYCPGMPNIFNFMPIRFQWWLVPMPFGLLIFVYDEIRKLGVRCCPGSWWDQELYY
T2 sequence (P18597 whole entry partner): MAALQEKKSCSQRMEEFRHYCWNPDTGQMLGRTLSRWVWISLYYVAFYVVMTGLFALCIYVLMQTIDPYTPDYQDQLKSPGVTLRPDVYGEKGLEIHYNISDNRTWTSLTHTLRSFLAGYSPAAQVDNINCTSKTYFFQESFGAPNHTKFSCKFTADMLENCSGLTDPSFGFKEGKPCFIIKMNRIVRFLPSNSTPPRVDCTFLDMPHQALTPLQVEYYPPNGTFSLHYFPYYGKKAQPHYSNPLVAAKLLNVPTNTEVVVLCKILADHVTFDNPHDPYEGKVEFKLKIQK
T1 sequence (P19156 2-1034 limits assumed): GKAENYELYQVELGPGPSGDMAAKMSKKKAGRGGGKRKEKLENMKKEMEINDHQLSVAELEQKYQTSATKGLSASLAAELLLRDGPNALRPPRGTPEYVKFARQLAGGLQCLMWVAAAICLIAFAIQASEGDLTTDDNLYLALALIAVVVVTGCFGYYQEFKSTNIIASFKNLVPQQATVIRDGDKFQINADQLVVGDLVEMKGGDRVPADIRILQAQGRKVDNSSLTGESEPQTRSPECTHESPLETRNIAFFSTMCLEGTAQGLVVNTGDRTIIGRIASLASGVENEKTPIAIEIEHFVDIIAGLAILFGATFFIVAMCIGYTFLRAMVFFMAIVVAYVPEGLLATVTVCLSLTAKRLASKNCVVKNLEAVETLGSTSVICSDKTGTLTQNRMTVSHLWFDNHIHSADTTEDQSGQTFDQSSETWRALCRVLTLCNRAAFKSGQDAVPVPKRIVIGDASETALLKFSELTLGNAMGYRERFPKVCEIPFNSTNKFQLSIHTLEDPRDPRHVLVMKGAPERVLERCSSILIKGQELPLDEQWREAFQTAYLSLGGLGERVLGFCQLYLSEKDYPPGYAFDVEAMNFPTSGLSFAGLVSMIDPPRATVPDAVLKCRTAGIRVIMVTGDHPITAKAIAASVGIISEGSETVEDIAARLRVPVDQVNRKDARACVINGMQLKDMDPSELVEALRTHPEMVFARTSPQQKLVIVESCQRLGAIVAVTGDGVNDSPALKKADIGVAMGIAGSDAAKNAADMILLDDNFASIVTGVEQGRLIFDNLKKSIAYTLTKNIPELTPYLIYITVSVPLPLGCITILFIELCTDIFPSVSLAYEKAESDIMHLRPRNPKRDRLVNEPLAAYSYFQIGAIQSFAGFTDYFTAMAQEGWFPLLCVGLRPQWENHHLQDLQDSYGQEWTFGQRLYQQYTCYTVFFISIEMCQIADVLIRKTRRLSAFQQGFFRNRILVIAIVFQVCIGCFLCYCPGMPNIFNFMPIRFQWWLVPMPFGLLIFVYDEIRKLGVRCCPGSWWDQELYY
T1 sequence (P18434 whole entry partner): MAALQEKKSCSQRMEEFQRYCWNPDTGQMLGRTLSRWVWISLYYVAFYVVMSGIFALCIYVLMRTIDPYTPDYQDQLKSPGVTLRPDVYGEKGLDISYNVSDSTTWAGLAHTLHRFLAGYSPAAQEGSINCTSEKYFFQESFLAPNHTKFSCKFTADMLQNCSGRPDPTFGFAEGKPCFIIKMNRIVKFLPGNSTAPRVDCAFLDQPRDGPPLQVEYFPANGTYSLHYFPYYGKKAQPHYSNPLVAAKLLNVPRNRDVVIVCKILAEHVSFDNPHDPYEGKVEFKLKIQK

| Structure (SMILES) | inhibition in vivo at 3 mg/kg [2] [%] | Suppresive action on secretion of gastric acid (%) ([4]; 10 mg/kg) | Suppresive action on secretion of gastric acid (%) ([4]; 30 mg/kg) | inhibition in vivo at 1 mg/kg [2] [%] | other results |
| --- | --- | --- | --- | --- | --- |
| CNc1ccccc1C[S+]([O-])c1ncc[nH]1 (stereo not shown) [Example No. 8, 2-(2-methylaminobenzylsulfinyl)imidazole] |  |  |  |  | IC50 (H^+ +K^+ ATPase [1]): 2.8 µM |
| CNc1ccccc1C[S+]([O-])c1nc2c([nH]1)CCCC2 (stereo not shown) [Example No. 2, 2-(2-methylaminobenzylsulfinyl)-4,5,6,7-tetrahydro-1H-benzimidazole] | 53 |  |  |  | IC50 (H^+ +K^+ ATPase [1]): 1.8 µM |
| CC(C)CNc1ccccc1C[S+]([O-])c1ncc[nH]1 (stereo not shown) [Example No. 10, 2-[(2-isobutylamino)benzylsulfinyl]imidazole] | 81 | 56.2 | 87.0 |  | Acute toxicity: noticeable change (beagle dogs): no noticeable change; inhibition at 200 µM (H^+ +K^+ ATPase [3]): 97.2%; Acute toxicity: noticeable change (rats): no noticeable change |
| CNc1ccc(C)cc1C[S+]([O-])c1ncc[nH]1 (stereo not shown) [Example No. 14, 2-[(5-methyl-2-methylamino)benzylsulfinyl]imidazole] | 97 | 82.2 | 98.6 |  | inhibition at 200 µM (H^+ +K^+ ATPase [3]): 90.8% |
| CC(C)CNc1ccccc1CSc1ncc[nH]1 [Example No. 9, 2-[(2-isobutylamino)benzylthio]imidazole] | 11 |  |  |  |  |
| CC(C)Nc1ccccc1C[S+]([O-])c1ncc[nH]1 (stereo not shown) [Example No. 23, 2-[(2-isopropylamino)benzylsulfinyl]imidazole] | 66 |  |  |  |  |
| Cc1ccc(C[S+]([O-])c2ncc[nH]2)c(NCC(C)C)c1 (stereo not shown) [Example No. 47, 2-[(2-isobutylamino-4-methyl)benzylsulfinyl]imidazole] |  |  |  | 87 |  |
| CNc1ccccc1C[S+]([O-])c1nc(C)c[nH]1 (stereo not shown) [Example No. 37, 4-methyl-2-[(2-methylamino)benzylsulfinyl]imidazole] | 50 |  |  |  |  |
| [O-][S+](Cc1ccccc1NCc1ccccc1)c1ncc[nH]1 (stereo not shown) [Example No. 27, 2-[(2-benzylamino)benzylsulfinyl]imidazole] | 57 |  |  |  |  |
| CNc1cccc(C)c1C[S+]([O-])c1ncc[nH]1 (stereo not shown) [Example No. 33, 2-[(2-methyl-6-methylamino)benzylsulfinyl]imidazole] |  | 92.9 | 91.4 | 70 |  |
| COc1cccc(NCC(C)C)c1C[S+]([O-])c1ncc[nH]1 (stereo not shown) [Example No. 41, 2-[(2-isobutylamino-6-methoxy)benzylsulfinyl]imidazole] | 97 |  |  | 66 |  |
| COc1ccc(NCC(C)C)c(C[S+]([O-])c2ncc[nH]2)c1 (stereo not shown) [Example No. 29, 2-[(2-isobutylamino-5-methoxy)benzylsulfinyl]imidazole] | 81 | 30.8 | 89.0 | 30 |  |
| Cc1cccc(NCC(C)C)c1C[S+]([O-])c1ncc[nH]1 (stereo not shown) [Example No. 45, 2-[(2-isobutylamino-6-methyl)benzylsulfinyl]imidazole] |  | 86.8 | 90.3 | 82 |  |
| CCNc1ccccc1C[S+]([O-])c1ncc[nH]1 (stereo not shown) [Example No. 25, 2-[(2-ethylamino)benzylsulfinyl]imidazole] | 80 | 74.0 | 93.3 |  | inhibition at 200 µM (H^+ +K^+ ATPase [3]): 87.5% |
